We go through 49 compounds from patent US20230303497A1, “BENZYLAMINE OR BENZYL ALCOHOL DERIVATIVE AND USES THEREOF” (CHENGDU HYPERWAY PHARMACEUTICALS CO., LTD, priority 2020, published 2023).

human NaV1.8 ion channel, sequence (Q9Y5Y9 whole entry): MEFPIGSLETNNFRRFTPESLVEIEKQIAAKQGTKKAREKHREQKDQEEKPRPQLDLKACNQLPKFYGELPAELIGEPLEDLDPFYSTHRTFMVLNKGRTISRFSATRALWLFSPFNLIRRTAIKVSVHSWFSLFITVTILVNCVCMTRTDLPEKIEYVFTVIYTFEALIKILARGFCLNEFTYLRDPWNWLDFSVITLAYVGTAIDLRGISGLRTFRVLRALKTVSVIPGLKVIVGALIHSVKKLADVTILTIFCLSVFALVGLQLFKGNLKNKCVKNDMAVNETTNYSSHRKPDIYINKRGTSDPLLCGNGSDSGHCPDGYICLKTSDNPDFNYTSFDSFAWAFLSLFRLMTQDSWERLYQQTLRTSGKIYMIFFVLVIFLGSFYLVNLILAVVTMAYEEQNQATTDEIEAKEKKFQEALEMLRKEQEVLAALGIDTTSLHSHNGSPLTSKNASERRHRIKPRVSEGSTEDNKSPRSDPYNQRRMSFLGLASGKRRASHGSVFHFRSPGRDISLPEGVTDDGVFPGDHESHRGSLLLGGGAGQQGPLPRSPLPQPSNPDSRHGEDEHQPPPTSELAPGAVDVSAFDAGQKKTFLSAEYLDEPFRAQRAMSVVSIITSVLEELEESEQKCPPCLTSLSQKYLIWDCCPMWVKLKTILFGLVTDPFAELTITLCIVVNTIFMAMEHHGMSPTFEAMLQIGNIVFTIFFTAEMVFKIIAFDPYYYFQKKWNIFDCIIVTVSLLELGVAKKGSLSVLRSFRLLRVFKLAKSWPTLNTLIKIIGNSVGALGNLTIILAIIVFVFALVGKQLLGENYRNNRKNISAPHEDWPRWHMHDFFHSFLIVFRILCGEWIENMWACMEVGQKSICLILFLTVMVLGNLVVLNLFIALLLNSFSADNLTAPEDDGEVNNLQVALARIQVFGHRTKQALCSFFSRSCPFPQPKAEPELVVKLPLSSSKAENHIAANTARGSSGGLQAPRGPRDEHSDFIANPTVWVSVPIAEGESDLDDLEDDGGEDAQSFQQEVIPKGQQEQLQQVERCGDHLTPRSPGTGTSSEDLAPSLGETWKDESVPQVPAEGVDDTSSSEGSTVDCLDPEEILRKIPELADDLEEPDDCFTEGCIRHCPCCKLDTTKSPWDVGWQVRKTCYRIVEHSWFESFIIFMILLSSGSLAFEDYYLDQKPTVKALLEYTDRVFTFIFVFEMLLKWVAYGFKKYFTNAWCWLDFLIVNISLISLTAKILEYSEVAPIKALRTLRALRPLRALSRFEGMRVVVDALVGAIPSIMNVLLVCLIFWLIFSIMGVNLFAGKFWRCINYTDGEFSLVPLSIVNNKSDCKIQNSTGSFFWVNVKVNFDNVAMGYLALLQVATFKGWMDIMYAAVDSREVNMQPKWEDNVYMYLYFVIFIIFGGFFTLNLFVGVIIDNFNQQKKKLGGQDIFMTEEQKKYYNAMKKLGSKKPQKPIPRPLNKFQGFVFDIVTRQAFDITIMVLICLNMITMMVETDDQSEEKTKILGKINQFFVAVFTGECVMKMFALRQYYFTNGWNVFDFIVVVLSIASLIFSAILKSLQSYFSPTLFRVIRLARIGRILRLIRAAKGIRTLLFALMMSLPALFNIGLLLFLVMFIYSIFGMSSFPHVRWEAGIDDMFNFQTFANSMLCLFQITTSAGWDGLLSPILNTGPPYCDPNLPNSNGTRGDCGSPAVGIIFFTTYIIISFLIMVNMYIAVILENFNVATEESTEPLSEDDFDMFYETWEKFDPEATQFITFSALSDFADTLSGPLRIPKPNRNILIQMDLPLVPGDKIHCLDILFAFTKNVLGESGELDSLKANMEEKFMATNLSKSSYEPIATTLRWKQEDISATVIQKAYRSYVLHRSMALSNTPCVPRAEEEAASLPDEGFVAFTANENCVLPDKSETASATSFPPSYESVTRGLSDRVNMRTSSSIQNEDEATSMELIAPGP

The first experiment addresses human NaV1.8 ion channel (Homo sapiens (Human), UniProt Q9Y5Y9). Briefly: Compound inhibition activity on human NaV1.8 ion channel in HEK293 cells (whole-cell patch clamp). The format is cell-based. Particulars: 100 nm concentration; HEK293 cells, resting protocol. As to the method: Test Case 1: Compound Inhibition Activity on Human NaV1.8 Ion Channel in HEK293 Cells
The final concentrations of the test compounds are prepared on the same day and then dissolved in extracellular solution. […] The intracellular solution (mM) contains: Aspartic acid, 140; MgCl2, 2; EGTA 11; HEPES, 10; pH 7.2 (CsOH titration). All test solutions contain 1 μM TTX.
The test solution are stored at a concentration of 3 mM in dimethyl sulfoxide (DMSO). The solutions will be dissolved in extracellular solution on the day of testing and prepared to the required concentration.
All experiments were performed at room temperature. Each cell itself is taken as the corresponding control.
At least one cell is tested per concentration.
HEK293 cell steady expressing NaV1.8 ion channel.
The intracellular fluid (mM) contains: Aspartic acid, 140; MgCl2, 2; EGTA 11; HEPES, 10; pH 7.2 (CsOH titration). […] Electrodes are drawn with PC-10 (Narishige, Japan). Recording is performed with whole-cell diaphragm clamp.
The cells are clamped at −80 mV and then depolarized to 10 mV with a sustained 10 ms square wave to give a Nav1.8 current. This procedure is repeated every 5 seconds.
(In general: In patch-clamp work, channel activity is measured electrically.)
As to `Cc1cc(F)ccc1Oc1cc(C2CC2)c(C(F)(F)F)cc1C(=O)Nc1ccnc(OCC(O)CO)c1` (stereo not shown) [Example 63, 4-Cyclopropyl-N-(2-(2,3-dihydroxypropoxy)pyridin-4-yl)-2-(4-fluoro-2-methylphenoxy)-5-(trifluoromethyl) benzamide], the “Inhibition ratio of compounds against Nav1.8 (Activity of inhibition)” value is recorded as “B (80 > B >= 50)”.

The experiment is the same for the next values; noted with them: 100 nm concentration; HEK293 cells, resting protocol; read-out: Inhibition ratio of compounds against Nav1.8 (Activity of inhibition).
Turning to `Cc1cc(F)ccc1Oc1cc(C2CC2)c(C(F)(F)F)cc1C(=O)Nc1ccc(F)c(OCC(=O)NCC(F)(F)F)c1` [Example 61], the inhibition at 0.1 µM is 20 to 50%. For the compound `Cc1cc(F)ccc1Oc1cc(C2CC2)c(C(F)(F)F)cc1C(=O)Nc1ccnc(OCC(O)CNC(C)(C)C)c1` (stereo not shown) [Example 64, N-(2-(3-(tert-butylamino)-2-hydroxypropoxy)pyridin-4-yl)-4-cyclopropyl-2-(4-fluoro-2-methylphenoxy)-5-(trifluoromethyl) benzamide], the inhibition at 0.1 µM fell in the range of 20 to 50%. On the same count and under the same terms, next, `Cc1cc(F)ccc1Oc1cc(C2CC2)c(C(F)(F)F)cc1C(=O)Nc1ccc(F)c(OCC(O)CNC(=O)CO)c1` (stereo not shown) [Example 65, 4-Cyclopropyl-2-(4-fluoro-2-methylphenoxy)-N-(4-fluoro-3-(2-hydroxy-3-(2-hydroxyacetylamino)propoxy)phenyl)-5-(trifluoromethyl) benzamide]: over 80%; `Cc1cc(F)ccc1Oc1cc(C2CC2)c(C(F)(F)F)cc1C(=O)Nc1ccc(F)c(C(N)CCNC(C)(C)C)c1` (stereo not shown) [Example 66]: over 80%. Same read-out and setting: next, `Cc1cc(F)ccc1Oc1cc(C2CC2)c(C(F)(F)F)cc1C(=O)Nc1ccc(F)c(OCC(O)CNC(C)C)c1` (stereo not shown) [Example 67]: over 80%; `Cc1cc(F)ccc1Oc1cc(C2CC2)c(C(F)(F)F)cc1C(=O)Nc1ccc(F)c(OCC2CCCN2)c1` (stereo not shown) [Example 68]: 20 to 50%. The same measure, in the same setting: next, `Cc1cc(F)ccc1Oc1cc(C2CC2)c(C(F)(F)F)cc1C(=O)Nc1ccnc(C(F)(F)F)c1` [Example 69]: 20 to 50%; `Cc1cc(F)ccc1Oc1cc(C2CC2)c(C(F)(F)F)cc1C(=O)Nc1ccnc(C(C)(C)O)c1` [Example 70]: 20 to 50%; `Cc1cc(F)ccc1Oc1cc(C2CC2)c(C(F)(F)F)cc1C(=O)Nc1ccc(F)c(OC2CC(O)C2)c1` (stereo not shown) [Example 71]: 50 to 80%.

For `Cc1cc(F)ccc1Oc1cc(C2CC2)c(C(F)(F)F)cc1C(=O)Nc1ccc(F)c(C(CCO)N2CCCC2)c1` (stereo not shown) [Example 72], the inhibition at 0.1 µM lay within 50 to 80%.

On to `Cc1cc(F)ccc1Oc1cc(C2CC2)c(C(F)(F)F)cc1C(=O)Nc1ccc(F)c(C(CCO)NS(C)(=O)=O)c1` (stereo not shown) [Example 73], for which the inhibition at 0.1 µM fell in the range of 20 to 50%.

As to `Cc1cc(F)ccc1Oc1cc(C2CC2)c(C(F)(F)F)cc1C(=O)Nc1ccc(F)c(OCc2ncc[nH]2)c1` [Example 74], the inhibition at 0.1 µM lay within 50 to 80%.

For `Cc1cc(F)ccc1Oc1cc(C2CC2)c(C(F)(F)F)cc1C(=O)Nc1ccc(F)c(OCc2nccs2)c1` [Example 75], the inhibition at 0.1 µM fell in the range of 50 to 80%. Consider `Cc1cc(F)ccc1Oc1cc(C2CC2)c(C(F)(F)F)cc1C(=O)Nc1ccc(F)c(OCC(N)=O)c1` [Example 76], for which the inhibition at 0.1 µM is over 80%.

In the case of `Cc1cc(F)ccc1Oc1cc(C2CC2)c(C(F)(F)F)cc1C(=O)Nc1ccc(F)c(OCC(O)CNC(C)(C)C)c1` (stereo not shown) [Example 77], the inhibition at 0.1 µM is over 80%.

Regarding `Cc1cc(F)ccc1Oc1cc(C2CC2)c(C(F)(F)F)cc1C(=O)Nc1ccc(F)c(OCC(O)CNC2CC2)c1` (stereo not shown) [Example 78], the inhibition at 0.1 µM was over 80%. Still for that read-out and setting: for `Cc1cc(F)ccc1Oc1cc(C2CC2)c(C(F)(F)F)cc1C(=O)Nc1ccc(F)c(OCC(O)CN2CCCC2)c1` (stereo not shown) [Example 79] the value was 20 to 50%. With `Cc1cc(F)ccc1Oc1cc(C2CC2)c(C(F)(F)F)cc1C(=O)Nc1ccc(F)c(OCC2CNCCO2)c1` (stereo not shown) [Example 80], the inhibition at 0.1 µM was in the range of 50 to 80%. For `CC(=O)NCC(O)COc1cc(NC(=O)c2cc(C(F)(F)F)c(C3CC3)cc2Oc2ccc(F)cc2C)ccc1F` (stereo not shown) [Example 81], the inhibition at 0.1 µM lay in the range of 50 to 80%. Same read-out and setting: for `Cc1cc(F)ccc1Oc1cc(C2CC2)c(C(F)(F)F)cc1C(=O)Nc1cccc(OCC(O)CNC(C)C)c1` (stereo not shown) [Example 82] the value was over 80%; for `Cc1cc(F)ccc1Oc1cc(C2CC2)c(C(F)(F)F)cc1C(=O)Nc1ccc(F)c(OC2CCC(CO)OC2)c1` (stereo not shown) [Example 84], 20 to 50%; for `Cc1cc(F)ccc1Oc1cc(C2CC2)c(C(F)(F)F)cc1C(=O)Nc1ccc(F)c(OC2CCC(CN)OC2)c1` (stereo not shown) [Example 85], 20 to 50%. On the same count and under the same terms, next, `Cc1cc(F)ccc1Oc1cc(C2CC2)c(C(F)(F)F)cc1C(=O)Nc1ccc(F)c(OCC(O)CNC2(C(=O)O)CC2)c1` (stereo not shown) [Example 86]: 20 to 50%; `Cc1cc(F)ccc1Oc1cc(C2CC2)c(C(F)(F)F)cc1C(=O)Nc1ccc(F)c(OCC(O)CNCC(F)(F)F)c1` (stereo not shown) [Example 87]: 50 to 80%. With `Cc1cc(F)ccc1Oc1cc(C2CC2)c(C(F)(F)F)cc1C(=O)Nc1ccc(F)c(OCC(=O)NC2(C(F)(F)F)CC2)c1` [Example 89], the inhibition at 0.1 µM was 50 to 80%. Still for that read-out and setting: for `Cc1cc(F)ccc1Oc1cc(C2CC2)c(C(F)(F)F)cc1C(=O)Nc1ccc(F)c(OCC(O)CO)c1` (stereo not shown) [Example 90] the value was 50 to 80%. As for `Cc1cc(F)ccc1Oc1cc(C2CC2)c(C(F)(F)F)cc1C(=O)Nc1ccc(F)c(OCC(O)CNC(C)C(F)(F)F)c1` (stereo not shown) [Example 91], the inhibition at 0.1 µM fell in the range of 20 to 50%.

`Cc1cc(F)ccc1Oc1cc(C2CC2)c(C(F)(F)F)cc1C(=O)Nc1ccc(F)c(OCC(O)CNc2ccccc2)c1` (stereo not shown) [Example 92]: the inhibition at 0.1 µM lay within 20 to 50%. Turning to `Cc1cc(F)ccc1Oc1cc(C2CC2)c(C(F)(F)F)cc1C(=O)Nc1ccc(F)c(OCC(O)CNC23CC(C2)C3)c1` (stereo not shown) [Example 93], the inhibition at 0.1 µM fell in the range of 50 to 80%. For the compound `Cc1cc(F)ccc1Oc1cc(C2CC2)c(C(F)(F)F)cc1C(=O)Nc1ccc(F)c(OCC(O)CNC23CC4CC(CC(C4)C2)C3)c1` (stereo not shown) [Example 94], the inhibition at 0.1 µM lay in the range of 50 to 80%. With `COc1ccc(NCC(O)COc2cc(NC(=O)c3cc(C(F)(F)F)c(C4CC4)cc3Oc3ccc(F)cc3C)ccc2F)cc1` (stereo not shown) [Example 95], the inhibition at 0.1 µM fell in the range of 20 to 50%. The same measure, in the same setting: for `Cc1cc(F)ccc1Oc1cc(C2CC2)c(C(F)(F)F)cc1C(=O)Nc1ccc(F)c(OCC(O)CNc2ccc(F)cc2)c1` (stereo not shown) [Example 96] the value was 20 to 50%; for `Cc1cc(F)ccc1Oc1cc(C2CC2)c(C(F)(F)F)cc1C(=O)Nc1ccc(F)c(OCC(O)CNc2cnn(C)c2)c1` (stereo not shown) [Example 97], 50 to 80%. Still for that read-out and setting: next, `Cc1cc(F)ccc1Oc1cc(C2CC2)c(C(F)(F)F)cc1C(=O)Nc1ccc(F)c(OCC(O)CNc2nccs2)c1` (stereo not shown) [Example 98]: over 80%; `Cc1cc(F)ccc1Oc1cc(C2CC2)c(C(F)(F)F)cc1C(=O)Nc1ccc(F)c(OCC(O)CNc2ccn[nH]2)c1` (stereo not shown) [Example 99]: 50 to 80%; `Cc1cc(F)ccc1Oc1cc(C2CC2)c(C(F)(F)F)cc1C(=O)Nc1ccc(F)c(OCC(O)CNc2ncc[nH]2)c1` (stereo not shown) [Example 100]: 50 to 80%. Still for that read-out and setting: for `Cc1cc(F)ccc1Oc1cc(C(F)(F)F)c(Cl)cc1C(=O)Nc1cnnc(OCC(O)CO)c1` (stereo not shown) [Example 101] the value was 50 to 80%; for `Cc1cc(F)ccc1Oc1cc(C2CC2)c(C(F)(F)F)cc1C(=O)Nc1cnnc(OCC(O)CO)c1` (stereo not shown) [Example 102], 50 to 80%. Turning to `Cc1cc(F)ccc1Oc1cc(C(F)(F)F)c(Cl)cc1C(=O)Nc1ccnc(OCC(O)CO)c1` (stereo not shown) [Example 103], the inhibition at 0.1 µM is over 80%. For the compound `Cc1cc(F)ccc1Oc1cc(C2CC2)c(C(F)(F)F)cc1C(=O)Nc1ccnc(OC[C@@H](O)CO)c1` [Example 105], the inhibition at 0.1 µM lay within 50 to 80%. For `Cc1cc(F)ccc1Oc1cc(C(F)(F)F)c(Cl)cc1C(=O)Nc1ccc(F)c(OCC(O)CNC(C)C)c1` (stereo not shown) [Example 106], the inhibition at 0.1 µM was over 80%. On to `Cc1cc(F)ccc1Oc1cc(C(F)(F)F)ccc1C(=O)Nc1ccc(F)c(OCC(O)CNC(=O)CO)c1` (stereo not shown) [Example 107], for which the inhibition at 0.1 µM fell in the range of 50 to 80%. As for `Cc1cc(F)ccc1Oc1cc(C(F)(F)F)ccc1C(=O)Nc1ccnc(OC[C@H](O)CO)c1` [Example 108], the inhibition at 0.1 µM lay in the range of 50 to 80%. Same read-out and setting: for `Cc1cc(F)ccc1Oc1cc(C(F)(F)F)ccc1C(=O)Nc1cnnc(OC[C@H](O)CO)c1` [Example 109] the value was 20 to 50%; for `Cc1cc(F)ccc1Oc1cc(C(F)(F)F)ccc1C(=O)Nc1ccc(F)c(OCC(O)CN)c1` (stereo not shown) [Example 110], 50 to 80%; for `Cc1cc(F)ccc1Oc1cc(C2CC2)c(C(F)(F)F)cc1C(=O)Nc1cnnc(OC[C@@H](O)CO)c1` [Example 111], 50 to 80%. As for `Cc1cc(F)ccc1Oc1cc(C(F)(F)F)c(Cl)cc1C(=O)Nc1ccnc(OC[C@@H](O)CO)c1` [Example 113, (S)-5-chloro-N-(2-(2,3-dihydroxypropoxy)pyridin-4-yl)-2-(4-fluoro-2-methylphenoxy)-4-(trifluoromethyl) benzamide], the inhibition at 0.1 µM is over 80%.

Still in this experiment, the particulars now being: HEK293, read-out: Inhibition ratio of compounds against Nav1.8 (Activity of inhibition).
For the compound `Cc1cc(F)ccc1Oc1cc(C2CC2)c(C(F)(F)F)cc1C(=O)Nc1ccc(F)c(OCCOC(N)=O)c1` [Example 62, (2-(5-(4-Cyclopropyl-2-(4-fluoro-2-methylphenoxy)-5-(trifluoromethyl)benzamido)-2-fluorophenoxy)ethyl) carbamate], the inhibition at 0.1 µM was 50 to 80%.
